Test results: patent US20060263802A1 (priority 2003, published 2006)

Key:
Assay type in all cases: binding
[1] = test system: human monoclonal antibody CRJB
[2] = test system: human monoclonal antibody CRJA
[3] = test system: human monoclonal antibody CRJA; remark: listed apart in the source
[4] = test system: human monoclonal antibody CRJB; remark: listed apart in the source
[5] = test system: human monoclonal antibody CR57
[6] = test system: human monoclonal antibody CR57; remark: listed apart in the source

Row | Sequence | Binding of CRJB to linear peptide (PEPSCAN-ELISA signal) [1] | Binding of CRJA to linear peptide (PEPSCAN-ELISA signal) [2] | Binding of CRJA (10 μg/ml) to looped/cyclic peptide (PEPSCAN-ELISA signal) [3] | Binding of CRJB (10 μg/ml) to looped/cyclic peptide (PEPSCAN-ELISA signal) [4] | Binding of CR57 (10 μg/ml) to looped/cyclic peptide (PEPSCAN-ELISA signal) [5] | Binding of CR57 to linear peptide (PEPSCAN-ELISA signal) [6] | Binding of CRJA (10 μg/ml) to looped/cyclic peptide (PEPSCAN-ELISA) [3] | Binding of CRJB (10 μg/ml) to looped/cyclic peptide (PEPSCAN-ELISA) [4] | Binding of CR57 (10 μg/ml) to looped/cyclic peptide (PEPSCAN-ELISA) [5] | Binding of human monoclonal antibody CRJB to linear peptide (PEPSCAN-ELISA signal) [1] | Binding of human monoclonal antibody CRJA to linear peptide (PEPSCAN-ELISA signal) [2] | Binding of CRJA to looped/cyclic peptide (PEPSCAN-ELISA signal) [3] | Binding of CRJB to looped/cyclic peptide (PEPSCAN-ELISA signal) [4] | Binding of CR57 to looped/cyclic peptide (PEPSCAN-ELISA signal) [5] | Binding of human monoclonal antibody CR57 to linear peptide (PEPSCAN-ELISA signal) [6]
1 | DACRAAYNWKMAGDP | 113 | 83 | 110 | 77 | 133 | 84 | – | – | – | – | – | – | – | – | –
2 | VADLDPYDRSLHSRV | 113 | 92 | 89 | 74 | 85 | 71 | – | – | – | – | – | – | – | – | –
3 | LGLRLMDGTWVAMQT | 115 | 113 | – | – | – | 102 | 97 | 108 | 92 | – | – | – | – | – | –
4 | DEAEDFVEVHLPDVH | – | – | – | – | – | – | – | – | – | 136 | 105 | 98 | 104 | 89 | 68
5 | NGVFFNGIILGPDGN | 117 | 62 | – | – | – | 66 | 46 | 85 | 58 | – | – | – | – | – | –
6 | VTTTFKRKHFRPTPD | 105 | 77 | 89 | 83 | 101 | 79 | – | – | – | – | – | – | – | – | –
7 | LPDVHNQVSGVDLGL | – | – | – | – | – | – | – | – | – | 154 | 97 | 98 | 118 | 116 | 104
8 | HNQVSGVDLGLPNWG | – | – | – | – | – | – | – | – | – | 106 | 66 | 55 | 100 | 78 | 76
9 | ILDKLGPWSPIDIHH | 104 | 56 | 71 | 46 | 80 | 54 | – | – | – | – | – | – | – | – | –
10 | MEADAHYKSVRTWNE | 129 | 78 | – | – | – | 62 | 68 | 86 | 69 | – | – | – | – | – | –
11 | TSNETKWCPPDQLVN | 111 | 88 | – | – | – | 97 | 96 | 57 | 134 | – | – | – | – | – | –
12 | FRSDEIEHLVVEELV | 114 | 101 | – | – | – | 86 | 94 | 79 | 132 | – | – | – | – | – | –
